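Method: 48-hour compound exposure of cells in 96-well plates, five concentrations, linear interpolation of endpoints. Abbreviation: GI50, concentration required for 50% inhibition of growth. TGI marks complete inhibition of growth.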
Columns and labels:
Assay in all cases: NCI-60 cell line screen, 48 h
OVCAR-5 ovarian = system: OVCAR-5 ovarian
MDA-MB-435 = system: MDA-MB-435
SNB-19 CNS = system: SNB-19 CNS
A549 NSCLC = system: A549 NSCLC
SN12C renal = system: SN12C renal
HL-60(TB) leukemia = system: HL-60(TB) leukemia
HOP-92 NSCLC = system: HOP-92 NSCLC
NCI-H226 lung = system: NCI-H226 lung
SW-620 colon = system: SW-620 colon
PC-3 prostate = system: PC-3 prostate
HT29 colon = system: HT29 colon
SK-MEL-2 melanoma = system: SK-MEL-2 melanoma
KM12 colon = system: KM12 colon
OVCAR-3 ovarian = system: OVCAR-3 ovarian
SK-MEL-28 melanoma = system: SK-MEL-28 melanoma
MDA-MB-231 breast = system: MDA-MB-231 breast
TK-10 renal = system: TK-10 renal
UACC-62 melanoma = system: UACC-62 melanoma
MOLT-4 leukemia = system: MOLT-4 leukemia
IGROV1 ovarian = system: IGROV1 ovarian
SK-OV-3 ovarian = system: SK-OV-3 ovarian
SF-539 CNS = system: SF-539 CNS
SK-MEL-5 melanoma = system: SK-MEL-5 melanoma
MCF7 breast = system: MCF7 breast
UO-31 renal = system: UO-31 renal
SNB-75 CNS = system: SNB-75 CNS
NCI-H23 lung = system: NCI-H23 lung
NCI/ADR-RES ovarian = system: NCI/ADR-RES ovarian
ACHN renal = system: ACHN renal
CAKI-1 renal = system: CAKI-1 renal
RPMI-8226 leukemia = system: RPMI-8226 leukemia
RXF 393 renal = system: RXF 393 renal
EKVX NSCLC = system: EKVX NSCLC
786-0 renal = system: 786-0 renal
UACC-257 melanoma = system: UACC-257 melanoma
HS 578T breast = system: HS 578T breast
SF-295 CNS = system: SF-295 CNS
NCI-H460 lung = system: NCI-H460 lung
COLO 205 colon = system: COLO 205 colon
SR leukemia = system: SR leukemia
BT-549 breast = system: BT-549 breast
OVCAR-4 ovarian = system: OVCAR-4 ovarian
HCT-15 colon = system: HCT-15 colon
T-47D breast = system: T-47D breast
A498 renal = system: A498 renal
HCC-2998 colon = system: HCC-2998 colon
MALME-3M melanoma = system: MALME-3M melanoma
K-562 leukemia = system: K-562 leukemia
U251 CNS = system: U251 CNS
HOP-62 NSCLC = system: HOP-62 NSCLC

Question: With `CC(=O)OC[C@]12CC[C@@H](C(=O)/C=C/c3cccnc3)[C@@H]1[C@H]1CC[C@@H]3[C@@]4(C)CC[C@H](OC(C)=O)C(C)(C)[C@@H]4CC[C@@]3(C)[C@]1(C)CC2` as the molecule, how does the GI50 (OVCAR-5 ovarian) read?
Answer: Its GI50 is 1820 nM.

Question: What about the TGI (OVCAR-5 ovarian) of the same molecule?
Answer: Its TGI is 4070 nM.

Question: What about the GI50 (MDA-MB-435) of the same molecule?
Answer: The GI50 was 1410 nM.

Question: What about the TGI (MDA-MB-435) of the same molecule?
Answer: The TGI was 3180 nM.

Question: And the GI50 (SNB-19 CNS)?
Answer: Its GI50 is 1890 nM.

Question: And the TGI (SNB-19 CNS)?
Answer: The TGI was 4640 nM.

Question: And the GI50 (A549 NSCLC)?
Answer: Its GI50 is 1820 nM.

Question: And the TGI (A549 NSCLC)?
Answer: The TGI was 4690 nM.

Question: What about the GI50 (SN12C renal) of the same molecule?
Answer: The GI50 was 1590 nM.

Question: What about the TGI (SN12C renal) of the same molecule?
Answer: The TGI was 4350 nM.

Question: And the GI50 (HL-60(TB) leukemia)?
Answer: The GI50 was 450 nM.

Question: What about the TGI (HL-60(TB) leukemia) of the same molecule?
Answer: The TGI was 3290 nM.

Question: And the GI50 (HOP-92 NSCLC)?
Answer: The GI50 was 1080 nM.

Question: What about the TGI (HOP-92 NSCLC) of the same molecule?
Answer: The TGI was 2470 nM.

Question: What about the GI50 (NCI-H226 lung) of the same molecule?
Answer: Its GI50 is 1720 nM.

Question: What about the TGI (NCI-H226 lung) of the same molecule?
Answer: The TGI was 3850 nM.

Question: And the GI50 (SW-620 colon)?
Answer: The GI50 was 1470 nM.

Question: What about the TGI (SW-620 colon) of the same molecule?
Answer: Its TGI is 3420 nM.

Question: And the GI50 (PC-3 prostate)?
Answer: The GI50 was 820 nM.

Question: And the TGI (PC-3 prostate)?
Answer: The TGI was 4140 nM.

Question: What about the GI50 (HT29 colon) of the same molecule?
Answer: The GI50 was 1870 nM.

Question: What about the TGI (HT29 colon) of the same molecule?
Answer: The TGI was 4740 nM.

Question: What about the GI50 (SK-MEL-2 melanoma) of the same molecule?
Answer: The GI50 was 1800 nM.

Question: And the TGI (SK-MEL-2 melanoma)?
Answer: The TGI was 3780 nM.

Question: And the GI50 (KM12 colon)?
Answer: The GI50 was 1690 nM.

Question: What about the TGI (KM12 colon) of the same molecule?
Answer: The TGI was 4130 nM.

Question: What about the GI50 (OVCAR-3 ovarian) of the same molecule?
Answer: The GI50 was 1710 nM.

Question: What about the TGI (OVCAR-3 ovarian) of the same molecule?
Answer: The TGI was 3290 nM.

Question: What about the GI50 (SK-MEL-28 melanoma) of the same molecule?
Answer: The GI50 was 1440 nM.

Question: And the TGI (SK-MEL-28 melanoma)?
Answer: Its TGI is 2890 nM.

Question: What about the GI50 (MDA-MB-231 breast) of the same molecule?
Answer: Its GI50 is 1500 nM.

Question: What about the TGI (MDA-MB-231 breast) of the same molecule?
Answer: The TGI was 3610 nM.

Question: What about the GI50 (TK-10 renal) of the same molecule?
Answer: The GI50 was 1850 nM.

Question: What about the TGI (TK-10 renal) of the same molecule?
Answer: The TGI was 3630 nM.

Question: And the GI50 (UACC-62 melanoma)?
Answer: The GI50 was 1670 nM.

Question: And the TGI (UACC-62 melanoma)?
Answer: The TGI was 4080 nM.

Question: And the GI50 (MOLT-4 leukemia)?
Answer: Its GI50 is 587 nM.

Question: And the TGI (MOLT-4 leukemia)?
Answer: The TGI was 4000 nM.

Question: What about the GI50 (IGROV1 ovarian) of the same molecule?
Answer: Its GI50 is 1870 nM.

Question: What about the TGI (IGROV1 ovarian) of the same molecule?
Answer: The TGI was 4400 nM.

Question: And the GI50 (SK-OV-3 ovarian)?
Answer: The GI50 was 3320 nM.

Question: And the TGI (SK-OV-3 ovarian)?
Answer: The TGI was 19000 nM.

Question: And the GI50 (SF-539 CNS)?
Answer: Its GI50 is 1590 nM.

Question: What about the TGI (SF-539 CNS) of the same molecule?
Answer: Its TGI is 3070 nM.

Question: What about the GI50 (SK-MEL-5 melanoma) of the same molecule?
Answer: Its GI50 is 1550 nM.

Question: And the TGI (SK-MEL-5 melanoma)?
Answer: Its TGI is 2970 nM.

Question: What about the GI50 (MCF7 breast) of the same molecule?
Answer: The GI50 was 1100 nM.

Question: And the TGI (MCF7 breast)?
Answer: Its TGI is 2420 nM.

Question: What about the GI50 (UO-31 renal) of the same molecule?
Answer: The GI50 was 1370 nM.

Question: What about the TGI (UO-31 renal) of the same molecule?
Answer: The TGI was 2670 nM.

Question: What about the GI50 (SNB-75 CNS) of the same molecule?
Answer: Its GI50 is 1500 nM.

Question: And the TGI (SNB-75 CNS)?
Answer: Its TGI is 5000 nM.

Question: And the GI50 (NCI-H23 lung)?
Answer: The GI50 was 1860 nM.

Question: And the TGI (NCI-H23 lung)?
Answer: The TGI was 4120 nM.

Question: What about the GI50 (NCI/ADR-RES ovarian) of the same molecule?
Answer: Its GI50 is 1990 nM.

Question: What about the TGI (NCI/ADR-RES ovarian) of the same molecule?
Answer: Its TGI is 4910 nM.

Question: And the GI50 (ACHN renal)?
Answer: The GI50 was 1610 nM.

Question: And the TGI (ACHN renal)?
Answer: The TGI was 3020 nM.

Question: And the GI50 (CAKI-1 renal)?
Answer: Its GI50 is 1260 nM.

Question: And the TGI (CAKI-1 renal)?
Answer: Its TGI is 2700 nM.

Question: And the GI50 (RPMI-8226 leukemia)?
Answer: Its GI50 is 839 nM.

Question: And the TGI (RPMI-8226 leukemia)?
Answer: Its TGI is 3640 nM.

Question: And the GI50 (RXF 393 renal)?
Answer: Its GI50 is 1620 nM.

Question: What about the TGI (RXF 393 renal) of the same molecule?
Answer: The TGI was 3050 nM.

Question: And the GI50 (EKVX NSCLC)?
Answer: The GI50 was 2180 nM.

Question: What about the TGI (EKVX NSCLC) of the same molecule?
Answer: The TGI was 6990 nM.

Question: What about the GI50 (786-0 renal) of the same molecule?
Answer: The GI50 was 2420 nM.

Question: What about the TGI (786-0 renal) of the same molecule?
Answer: The TGI was 6710 nM.

Question: And the GI50 (UACC-257 melanoma)?
Answer: The GI50 was 1900 nM.

Question: What about the TGI (UACC-257 melanoma) of the same molecule?
Answer: The TGI was 4680 nM.

Question: And the GI50 (HS 578T breast)?
Answer: Its GI50 is 2240 nM.

Question: What about the TGI (HS 578T breast) of the same molecule?
Answer: Its TGI is 6610 nM.

Question: What about the GI50 (SF-295 CNS) of the same molecule?
Answer: The GI50 was 1470 nM.

Question: What about the TGI (SF-295 CNS) of the same molecule?
Answer: The TGI was 3190 nM.

Question: What about the GI50 (NCI-H460 lung) of the same molecule?
Answer: Its GI50 is 1310 nM.

Question: What about the TGI (NCI-H460 lung) of the same molecule?
Answer: The TGI was 3010 nM.

Question: What about the GI50 (COLO 205 colon) of the same molecule?
Answer: The GI50 was 1480 nM.

Question: And the TGI (COLO 205 colon)?
Answer: The TGI was 3370 nM.

Question: What about the GI50 (SR leukemia) of the same molecule?
Answer: The GI50 was 512 nM.

Question: And the TGI (SR leukemia)?
Answer: The TGI was over 100000 nM.

Question: What about the GI50 (BT-549 breast) of the same molecule?
Answer: The GI50 was 1460 nM.

Question: And the TGI (BT-549 breast)?
Answer: The TGI was 2870 nM.

Question: What about the GI50 (OVCAR-4 ovarian) of the same molecule?
Answer: Its GI50 is 3010 nM.

Question: What about the TGI (OVCAR-4 ovarian) of the same molecule?
Answer: Its TGI is over 100000 nM.

Question: What about the GI50 (HCT-15 colon) of the same molecule?
Answer: The GI50 was 1500 nM.

Question: What about the TGI (HCT-15 colon) of the same molecule?
Answer: The TGI was 3340 nM.

Question: And the GI50 (T-47D breast)?
Answer: Its GI50 is 1060 nM.

Question: And the TGI (T-47D breast)?
Answer: The TGI was 3530 nM.

Question: What about the GI50 (A498 renal) of the same molecule?
Answer: The GI50 was 1330 nM.

Question: And the TGI (A498 renal)?
Answer: The TGI was 2840 nM.

Question: And the GI50 (HCC-2998 colon)?
Answer: Its GI50 is 1650 nM.

Question: What about the TGI (HCC-2998 colon) of the same molecule?
Answer: Its TGI is 3230 nM.

Question: And the GI50 (MALME-3M melanoma)?
Answer: Its GI50 is 1380 nM.

Question: What about the TGI (MALME-3M melanoma) of the same molecule?
Answer: Its TGI is 2880 nM.

Question: What about the GI50 (K-562 leukemia) of the same molecule?
Answer: The GI50 was 903 nM.

Question: And the TGI (K-562 leukemia)?
Answer: The TGI was over 100000 nM.

Question: And the GI50 (U251 CNS)?
Answer: Its GI50 is 1600 nM.

Question: And the TGI (U251 CNS)?
Answer: Its TGI is 3350 nM.

Question: And the GI50 (HOP-62 NSCLC)?
Answer: Its GI50 is 2210 nM.

Question: What about the TGI (HOP-62 NSCLC) of the same molecule?
Answer: The TGI was 6370 nM.

Reference: PubChem BioAssay (NCI)
